Experimental findings from ChEMBL document CHEMBL1137256, “Iminosugars as potential inhibitors of glycogenolysis: structural insights into the molecular basis of glycogen phosphorylase inhibition” (J Med Chem, 2006) are described below.

One assay has as its system Liver. Put plainly: Inhibition of liver […]. Type of assay: functional, tissue-based. Conditions: Homo sapiens.
The species named for another assay is Mus musculus. The assay is described as follows: Antihyperglycemic activity in obese mouse. Type of assay: functional, organism-based.
The test system of assay [1] is Hepatocyte. Put plainly: cells. Conditions: Homo sapiens.
Description: Inhibition of glucagon-stimulated glycogen degradation in hepatocytes
The subject of assay [2] is Hepatocyte. The assay is described as follows: cells. Conditions: Homo sapiens. The source holds these as a separate data set.
Description: Inhibition of glycogen degradation in hepatocytes
Assay [3] addresses T1, Glycogen phosphorylase, liver form (Rattus norvegicus, UniProt P09811).
T1 sequence (P09811 whole entry): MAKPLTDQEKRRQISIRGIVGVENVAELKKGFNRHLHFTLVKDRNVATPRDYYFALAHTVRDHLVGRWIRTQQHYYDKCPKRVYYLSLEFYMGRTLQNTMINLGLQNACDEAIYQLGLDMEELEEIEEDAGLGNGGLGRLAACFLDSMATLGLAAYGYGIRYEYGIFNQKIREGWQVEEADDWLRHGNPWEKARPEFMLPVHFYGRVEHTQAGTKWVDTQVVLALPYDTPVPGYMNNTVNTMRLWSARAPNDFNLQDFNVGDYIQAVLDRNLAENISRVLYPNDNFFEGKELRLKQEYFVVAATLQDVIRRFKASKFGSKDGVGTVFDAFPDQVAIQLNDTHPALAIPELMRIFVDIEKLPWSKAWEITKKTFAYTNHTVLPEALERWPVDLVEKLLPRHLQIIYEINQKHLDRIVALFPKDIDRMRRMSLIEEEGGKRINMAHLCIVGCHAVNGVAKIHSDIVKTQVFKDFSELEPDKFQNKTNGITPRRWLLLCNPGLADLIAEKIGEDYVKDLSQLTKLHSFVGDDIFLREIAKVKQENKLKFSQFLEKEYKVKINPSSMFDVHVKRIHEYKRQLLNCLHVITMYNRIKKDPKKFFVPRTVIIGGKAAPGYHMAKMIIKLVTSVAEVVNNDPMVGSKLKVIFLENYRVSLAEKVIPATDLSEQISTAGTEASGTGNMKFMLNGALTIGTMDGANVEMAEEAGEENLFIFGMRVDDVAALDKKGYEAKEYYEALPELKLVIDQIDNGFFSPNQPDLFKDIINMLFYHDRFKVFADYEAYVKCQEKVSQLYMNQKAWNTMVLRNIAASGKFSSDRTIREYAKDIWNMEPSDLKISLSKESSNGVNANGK
The assay is described as follows: Inhibition of phosphorylated form of rat liver glycogen phosphorylase.

Molecules are shown by their SMILES. Active and inactive are the calls of the source. The rule behind the calls is not given here.

For the molecule `OC[C@H]1NC[C@@H](O)[C@@H]1O`, the result with Liver and in the assay listed under Mus musculus was Active.
On to `OC[C@H]1CNC[C@@H](O)[C@@H]1O` [AFEGOSTAT], for which the values for the half-inhibitory concentration (IC50) in the assay with Hepatocyte [1] and with Hepatocyte [2] were 2000 nM and 3000 nM, respectively.
On to `OC[C@H]1CN(CCCc2ccccc2)C[C@@H](O)[C@@H]1O`, for which, in assay [3], the concentration for half-maximal inhibition (IC50) turned out to be 1220 nM.

For orientation: IC50 means the concentration that gives 50% inhibition. A lower IC50 goes with higher potency.
